# Measurements from patent US20230035127A1, “CULTURE AND DIFFERENTIATION OF PLURIPOTENT STEM CELLS” (University of Maryland, College Park, priority 2021, published 2023).
# Experiments:
# human eiPSCs [1] = experiment: RNA sequencing of eiPSC spheroids and cardiac spheroids; format: cell-based; conditions: MO vs. MT (1 vs 10 μM RI), day 13.5
# Source text: To investigate the mechanisms for the different outcomes when using different RI concentrations for culturing the eiPSC spheroids in 3D for cardiac differentiation, samples at various stages of the 3D culture and differentiation shown in FIG. 1 were collected and analyzed by RNA-sequencing (RNA-seq). The sample groups and their abbreviations are summarized in Table 1 including undifferentiated eiPSCs on day −2.5 (U), cardiac commitment on day 2.5 (C), cardiac maturation on day 13.5 (M), together with 2D monolayer colonies on day −4 (2D) as a common 2D undifferentiated control for both the 1 (one: […]) and 10 (ten: T) μM RI 3D culture. The raw data of RAN-seq were of high quality with an error rate of no more than 0.03%. […] Afterward, the gene expression level was calculated by the number of mapped reads, also known as fragments per kilobase of transcript per million mapped reads (FPKM). […]
# For RNA sequencing (RNA-Seq), total RNA was extracted from the eiPSC clumps from 2D culture on day −4 (termed as 2D) and spheroids collected on day −2.5 after 1.5 days in the 3D culture (termed as UO and UT for 1 μM and 10 μM RI conditions, respectively), day 2.5 (termed as CO and CT), and day 13.5 (termed as MO and MT). […] The RNA concentration in the samples was measured with Nanodrop and the integrity and quality of RNAs in the samples were confirmed with the Nano RNA Bioanalyzer. […]
# IMR90-1 human iPSCs = experiment: Immunostaining of IMR90-1 cardiac spheroids; format: cell-based; conditions: day 12.5
# Description: (§1) The iPSC spheroids and the iPSC-derived Cardiac spheroids were fixed in 4% PFA in 1×PBS at 4° C. overnight. The fixed spheroids were incubated sequentially in 10% and 15% sucrose solutions in saline for 4 h, respectively. Afterward, the spheroids were put in a plastic box and embedded in OCT for cryosectioning. Slices of the spheroids of 10 μm thick were obtained by cutting the frozen sample on a Leica cryostat platform and then immediately attached onto the Leica Apex high adhesive glass slides.
# (§2) For immunostaining, the slides were gently rinsed twice with 1×PBS to remove the OCT and then incubated with 0.1% Tween-20 and 5% normal goat serum in 1×PBS for 1 h at room temperature (RT) to block non-specific bindings. Later, the samples were incubated with primary antibodies at 4° C. overnight. The dilution and product information of the primary antibodies were as follows: OCT-4 (1:500 dilution, Cell Signaling Technologies), NANOG (1:500 dilution, Cell Signaling Technologies), SSEA-4 (1:500 dilution, Cell Signaling Technologies), cTnT (1:500 dilution, Cell Signaling Technologies), CONNEXIN-43 (CX-43, 1:400 dilution, Santa Cruz Biotechnology), DESMIN (1:500 dilution, Santa Cruz Biotechnology), α-ACTININ (1:500 dilution; Santa Cruz Biotechnology), BRACHYURY (1:500; Santa Cruz Biotechnology), NKX2.5 (1:500; Santa Cruz Biotechnology), NESTIN (1:500; R & D Systems), MUSASHI-1 (1:500; R & D Systems), and TUJ-1 (1:500; R & D Systems). Afterward, the samples were rinsed with 1×PBS thrice and then incubated with the associated secondary antibodies (goat anti-rabbit IgG FITC and goat-anti-mouse IgG PE, Invitrogen) in 1×PBS for 1.5 h at RT. Lastly, the samples were rinsed with 1 ml of 1×PBS for 3 min and the nuclei were stained with 1 μg/ml DAPI solution for 5 min at RT. The samples were imaged with the Zeiss LSM 710 microscope.
# [2] = test system: eiPSC-derived cardiac spheroids; experiment: Immunostaining of cryosectioned eiPSC-derived cardiac spheroids; format: cell-based, human; conditions: cardiac spheroids day 12.5
# Description: as §1, §2
# human eiPSCs [3] = experiment: 2D re-plating of 3D iPSC spheroids on Matrigel (colony morphology, immunostaining); format: cell-based; conditions: day 0 spheroids cultured 2 days in 2D
# Description: To further confirm the aforementioned difference in morphology and protein expression between the 1 and 10 μM RI groups, the 3D iPSC spheroids obtained with 0, 1, and 10 μM RI concentrations collected on day 0 (i.e., after 4-day culture in 3D) were plated on the 2D surface coated with Matrigel in Petri dish (i.e., under conventional 2D culture) and cultured for 2 days to observe the cell morphology.
smiles,measurement,setting,value
"C[C@@H](N)[C@H]1CC[C@H](C(=O)Nc2ccncc2)CC1.Cl.Cl (relative stereo) [RI, (+)-(R)-trans-4-(1-aminoethyl)-N-(4-pyridyl) cyclo-hexanecarboxamide dihydrochloride]",top 2 significantly down-regulated differentially expressed gene groups (GO enrichment),human eiPSCs [1],enriched to the forebrain and axon development
same,top 18 significantly upregulated differentially expressed gene groups (GO enrichment),human eiPSCs [1],"enriched to heart development, muscle system process, and the development of Z-disc and I band"
same,expression of cTnT and CX-43,IMR90-1 human iPSCs; 1 μM RI,high with an evident expression of the gap junction protein CX-43
same,immunostaining of neural markers MUSASHI and TUJ-1,IMR90-1 human iPSCs; 1 μM RI,negligible
same,expression of cTnT and CX-43,IMR90-1 human iPSCs; 10 μM RI,"low and negligible, respectively"
same,immunostaining of neural markers MUSASHI and TUJ-1,IMR90-1 human iPSCs; 10 μM RI,existence of MUSASHI- and TUJ-1-positive cells
same,cells positive for WNT4 and CD44,[2]; 1 μM RI,not the 1 μM RI group
same,expression of cTnT and CONNEXIN-43 (CX-43),[2]; 1 μM RI,highly expressed
same,staining of neural lineage markers TUJ-1 and MUSASHI-1,[2]; 1 μM RI,no evident staining
same,cells positive for WNT4 and CD44,[2]; 10 μM RI,positive
same,expression of cTnT and CONNEXIN-43 (CX-43),[2]; 10 μM RI,either weak (for cTnT) or barely visible (for CX-43)
same,staining of neural lineage markers TUJ-1 and MUSASHI-1,[2]; 10 μM RI,positive
same,immunostaining of neural and pluripotency markers in re-plated colonies,human eiPSCs [3]; 1 μM RI,positive expression of OCT-4 and NANOG and were negative for NESTIN and TUJ-1
same,morphology of re-plated eiPSC colonies,human eiPSCs [3]; 1 μM RI,typical with tightly packed cells
same,immunostaining of neural and pluripotency markers in re-plated colonies,human eiPSCs [3]; 10 μM RI,positive staining of neural markers (NESTIN and TUJ-1) and weakened/no staining of pluripotency markers (OCT-4 and NANOG)
same,morphology of re-plated eiPSC colonies,human eiPSCs [3]; 10 μM RI,more loosely packed
